Laboratory results reported in patent US10653658B2, “Biofilm inhibiting compositions enhancing weight gain in livestock” (Akeso Biomedical, Inc., priority 2015, dated 2020).

Columns and labels:
[1] = test system: Salmonella; test: Salmonella cfu/g of caeca at day 42 (Example 10); type: in vivo; conditions: in feed
Method: (§1) A study was performed to evaluate growth promotion and reduction of Campylobacter carriage using FeTyr in Ross 308 male broilers with 7 treatment groups. Each treatment group comprised eight replicates of 10 birds per pen (80 birds/treatment group), with 2 control groups and […]. All the test groups and both of the control groups were exposed at day 20 of the trial to dirty litter, which tested positive for Campylobacter. This method was used to provide a more natural method to Campylobacter challenge the birds. Thus there were two positive controls where each treatment group was challenged with Campylobacter, and five treatment groups that were all challenged with Campylobacter. The total number of birds used in the 7 treatment groups was 560.
(§2) At day 20, litter, which was naturally Campylobacter-contaminated, was tested to confirm the presence of Campylobacter, and then added (approximately 2 kg/pen) to the litter in all pens. At day 42, caecal samples were taken and tested for Campylobacter, E. coli and Salmonella enumeration.

[2] = Growth performance of broilers given FeQ or FeTyr in water/feed, dirty litter Campylobacter challenge at day 20 (Example 1); type: in vivo, Ross 308 male broilers
Method: (§3) A study was performed to evaluate growth promotion and reduction of Campylobacter carriage using FeQ and FeTyr in Ross 308 male broilers with 7 treatment groups. Each treatment group comprised four replicates of 10 birds per pen (40 birds/treatment group and 4 pens of 10 birds/treatment group), with 2 control groups and 5 test groups. All the test groups and one of the control groups were exposed at day 20 of the trial to dirty litter, which tested positive for Campylobacter. This method was used to provide a more natural method to Campylobacter challenge the birds. Thus there was a positive control where one treatment group was challenged with Campylobacter and one negative control group where the birds were not challenged, and five treatment groups that were all challenged with Campylobacter. The total number of birds used in the 7 treatment groups was 280. Treatment group 1 was a negative control where birds just received the commercial feed, and were not challenged with dirty litter containing Campylobacter. Treatment group 2 was the positive control where the birds received the commercial feed, and were challenged with dirty litter containing Campylobacter at day 20. Treatment group 3 received 0.22 g/L of FeQ in their drinking water and 0.22 g/Kg FeQ in their feed during the entire trial, and was challenged with dirty litter containing Campylobacter at day 20. Treatment group 5 received 0.22 g/L of FeQ in their drinking water during the entire trial, and was challenged with dirty litter containing Campylobacter at day 20. Treatment group 6 received 0.22 g/kg FeQ in their feed during the entire trial, and was challenged with dirty litter containing Campylobacter at day 20. Treatment group 7 received 0.022 g/L FeQ in their drinking water during the entire trial, and was challenged with dirty litter containing Campylobacter at day 20. Treatment group 8 received 0.02 g/L FeTyr in their drinking water during the entire trial, and was challenged with dirty litter containing Campylobacter at day 20. The FeTyr was pre-dissolved in DMSO, and diluted to provide a solution of 0.02 g/L of FeTyr in water. (An additional treatment group 4 was terminated due to solubility issues.)
The birds were fed with a commercial three-phase feeding program using starter, grower and finisher feeds with formulations shown in Table 2. All diets had coccidiostat (MAXIBAN® at 0.0625% in starter and […] and MONTEBAN® at 0.06% in finisher phase). Xylanase (RONOZYME® WX at 200 g per ton) and phytase (RONOZYME® P at 150 grams per ton) were added to all diets.
The feeding program is show in Table 3. The birds were reared in floor pens to day 42, and fed starter, grower and finisher feed at day 0 to 11, 11 to 24, and 24 to 42 days, respectively. All birds were weighed individually and feed weigh backs recorded per pen at day 0, 11, 21, 24 and 42 days.
Prior to challenging the chickens with dirty litter containing Campylobacter at day 20, each pen was tested for Campylobacter using cloacal swabs. All pens tested negative for Campylobacter prior to the challenge. At day 20, litter, which was naturally Campylobacter-contaminated, was tested to confirm the presence of Campylobacter, and then added (approximately 2 kg/pen) to the litter in all pens except in pens for treatment group 1 (the negative control). At day 28, the pen litter was sampled to confirm the presence or absence of Campylobacter. At day 41 and 42, caecal samples were taken from 3 birds per pen (12 birds per treatment group) and tested for Campylobacter enumeration. At day 42, digesta, fecal samples, and caecal content was taken from all birds, and pooled per pen. Two birds per pen were also taken from treatment groups 1-3, euthanized, and blood samples taken. […]

[3] = test system: Campylobacter; test: Campylobacter carriage in chickens, cfu/g of droppings and caeca at day 42 (Example 1); type: in vivo
Method: as §3
Prior to challenging the chickens with dirty litter containing Campylobacter at day 20, each pen was tested for Campylobacter using cloacal swabs. All pens tested negative for Campylobacter prior to the challenge. At day 20, litter, which was naturally Campylobacter-contaminated, was tested to confirm the presence of Campylobacter, and then added (approximately 2 kg/pen) to the litter in all pens except in pens for treatment group 1 (the negative control). At day 28, the pen litter was sampled to confirm the presence or absence of Campylobacter. At day 41 and 42, caecal samples were taken from 3 birds per pen (12 birds per treatment group) and tested for Campylobacter enumeration. At day 42, digesta, fecal samples, and caecal content was taken from all birds, and pooled per pen. Two birds per pen were also taken from treatment groups 1-3, euthanized, and blood samples taken. Samples were analyzed for blood chemistry, including analysis for alkaline phosphatase, aspartate amino transferase, alanine amino transferase, gamma-glutamyl transferase, lactate dehydrogenase, total protein, albumin, globulin, amylase and glucose.

[4] = test system: Campylobacter; test: Campylobacter cfu/g of caeca at day 42 (Example 10); type: in vivo; conditions: in feed
Method: as §1, §2

[5] = test system: E. coli; test: E. coli cfu/g of caeca at day 42 (Example 10); type: in vivo
Method: as §1, §2

[6] = Dose ranging study of FeTyr (TYPLEX) in feed, zootechnical performance of broilers, dirty litter challenge at day 20 (Example 10); type: in vivo, Ross 308 male broilers; conditions: all treatment groups, in feed
Method: as §1
Treatment group 1 was a positive control where birds just received the commercial feed, and were challenged with dirty litter containing Campylobacter at day 20. Treatment group 2 received 0.01 g/kg of TYPLEX (FeTyr) in their feed, and were challenged with dirty litter containing Campylobacter at day 20. Treatment group 3 received 0.02 g/kg of TYPLEX (FeTyr) in their feed, and was challenged with dirty litter containing Campylobacter at day 20. Treatment group 4 received 0.05 g/kg of TYPLEX (FeTyr) in their feed, and was challenged with dirty litter containing Campylobacter at day 20. Treatment group 5 received 0.1 g/kg of TYPLEX (FeTyr) in their feed, and was challenged with dirty litter containing Campylobacter at day 20. Treatment group 6 received 0.2 g/kg of TYPLEX (FeTyr) in their feed, and was challenged with dirty litter containing Campylobacter at day 20. […] The birds were fed with a commercial three-phase feeding program using starter, grower and finisher feeds as described in Example 1. The birds were reared in floor pens to day 42, and fed starter, grower and finisher feed at day 0 to 11, 11 to 24, and 24 to 42 days, respectively. All birds were weighed individually and feed weigh backs recorded per pen at day 0, 11, 21, 24 and 42 days.
as §2
In order to minimize risk of cross-contamination, standard industry biosecurity measures were used including: disinfecting boots, changing overshoes and gloves between pens/treatments, entering Campylobacter negative pens before entering Campylobacter positive pens, and leaving adjacent pens empty. Daily health, culls, and mortality were recorded. All bird weights were recorded at 0, 11, 21, 24, 33 and 42 days. Weight gains, feed intake and feed conversion ratio (FCR) were derived for each feeding period.

For `N[C@@H](Cc1ccc(O)cc1)C(=O)O.[Fe+3]` [FeTyr, ferric tyrosine], the “Salmonella cfu/g of caeca at day 42 (FIG. 15)” value [1] was “positive effect on reducing Campylobacter infection”, the “effect on growth performance in the absence of Campylobacter challenge, first 20 days” value ([2]; compared with control groups 1 and 2) was “positive effect” and the “effect on MFCR at day 42 compared with positive control (FIG. 2)” value ([2]; treatment groups 3, 5, 6, 7 and 8, challenged with dirty litter) was “positive effect on MFCR”. For the same compound, the “effect on growth: average body weight at day 42 compared with positive control (FIG. 1)” value ([2]; treatment groups 3, 5, 6, 7 and 8, challenged with dirty litter containing Campylobacter) was “positive effect on growth”, the “Campylobacter cfu/g of caeca samples at day 42 compared with positive control (FIG. 4)” value ([3]; treatment groups 3 and 5-8) was “positive effect on reducing Campylobacter infection” and the “Campylobacter cfu/g of bird droppings at day 42 compared with positive control (FIG. 3)” value ([3]; treatment groups 3 and 6-8) was “positive effect on reducing Campylobacter infection”. The “Campylobacter cfu/g of caeca at day 42 (FIG. 14)” value [4] was “positive effect on reducing Campylobacter infection”, the “E. coli cfu/g of caeca at day 42 (FIG. 16)” value ([5]; in feed) was “positive effect on reducing Campylobacter infection” and the “levels of E. coli in poultry upon treatment” value ([5]; poultry data) was “lower levels of E. coli”. The “MFCR at day 42 compared to control group (FIG. 13)” value [6] was “improved MFCR values” and the “average body weight at day 42 compared with control group (FIG. 12)” value [6] was “higher average body weight”.
